Measured values published in ChEMBL document CHEMBL5365484, “Discovery and Characterization of Novel CNS-Penetrant GPR55 Agonists” (J Med Chem, 2023).
Active and inactive are the calls of the source. The calls are words filed in the database; no cut-off is given here.

Experiments:
[1] = Metabolic stability in rat liver microsomes assessed as intrinsic clearance at 1 uM preincubated for 60 mins followed by NADPH addition and measured after 60 mins by LC-MS/MS analysis; assay type: ADME, Microsome; details: time 120 min, read-out: CLH
[2] = Agonist activity at rat GPR55 expressed in human HEK293 cells assessed as effect on calcium flux incubated for 5 mins by FLIPR analysis; details: HEK293, 5 min
[3] = biological target: G-protein coupled receptor 55 (Homo sapiens, UniProt Q9Y2T6); assay: Agonist activity at human GPR55 expressed in human HEK293 cells assessed as effect on calcium flux incubated for 5 mins by FLIPR analysis; assay type: functional, cell-based
Chain of G-protein coupled receptor 55 (Q9Y2T6 whole entry): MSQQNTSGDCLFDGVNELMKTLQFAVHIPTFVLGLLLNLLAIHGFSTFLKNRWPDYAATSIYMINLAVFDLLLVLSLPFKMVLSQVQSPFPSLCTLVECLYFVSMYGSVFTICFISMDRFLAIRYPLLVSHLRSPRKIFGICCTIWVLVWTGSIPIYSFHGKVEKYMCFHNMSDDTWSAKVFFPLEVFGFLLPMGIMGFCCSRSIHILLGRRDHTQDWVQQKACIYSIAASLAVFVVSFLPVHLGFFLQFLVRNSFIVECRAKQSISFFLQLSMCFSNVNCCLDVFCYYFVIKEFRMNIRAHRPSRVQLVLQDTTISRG

Striatal neuron = assay: Neurophysiological effect on Wistar rat Striatal neuron assessed as decrease in potential firing frequency at 1 uM and measured after 3 mins by Whole-cell patch clamp assay; assay type: functional, cell-based
[4] = Toxicity in Wistar rat Striatal neuron assessed as cell viability at 1 uM; assay type: cell-based
Rattus norvegicus = assay: Effect on haloperidol-induced […] activity in Sprague-Dawley rat model assessed as locomotor activity at 3 mg/kg, po and measured after 60 mins; assay type: functional, organism-based

SMILES | microsomal CLint at 1 µM [1] | EC50 [2] | EC50 [3] | other results
Cc1cncc(-c2ccc(N[C@H](C)c3ccc(F)cc3)nc2)c1 | 234 µL/min/mg | – | – | –
C[C@@H](Nc1ccc(-c2ccc3oc(=O)[nH]c3c2)cn1)c1ccc(F)cc1 | – | 2400 nM | 573 nM | –
C[C@@H](Nc1cnc(-c2cncc(CC(F)F)c2)cn1)c1ccc(F)cc1 | 16 µL/min/mg | 4.13 nM | 0.439 nM | Activity (Striatal neuron): Active; Activity [4]: Non-Toxic
C[C@@H](Nc1ncc(-c2cncc(CC(F)(F)F)c2)nn1)c1ccc(F)cc1 | 6.4 µL/min/mg | – | – | –
CCn1c(=O)c2c(nc(/C=C/c3ccc(OC)c(OC)c3)n2C)n(CC)c1=O | – | – | – | Activity (Rattus norvegicus): Active
C[C@@H](Nc1ccc(-c2cncc(S(C)(=N)=O)c2)cn1)c1ccc(F)cc1 (stereo not given in full) | 2 µL/min/mg | – | – | –
C[C@@H](Nc1ccc(-c2cncc(S(C)(=O)=O)c2)cn1)c1ccc(F)cc1 | 3.8 µL/min/mg | 716 nM | 85.1 nM | –
C[C@@H](Nc1ccc(-c2cncc(C(F)(F)F)c2)cn1)c1ccc(F)cc1 | 5.2 µL/min/mg | – | – | –
C[C@@H](Nc1ccc(-c2cnn(C)c2)cn1)c1ccc(F)cc1 | – | 3510 nM | 427 nM | –
CCc1cncc(-c2ccc(N[C@H](C)c3ccc(F)cc3)nc2)c1 | 48 µL/min/mg | – | – | –
C[C@@H](Nc1ccc(-c2ccc3oc(=O)n(C)c3c2)cn1)c1ccc(F)cc1 | 3.9 µL/min/mg | – | – | –
CCc1cncc(-c2cnc(N[C@H](C)c3ccc(F)cc3)cn2)c1 | 78 µL/min/mg | 32.5 nM | 3.01 nM | –
C[C@@H](Nc1ccc(-c2cncc(C3CC3)c2)cn1)c1ccc(F)cc1 | 10 µL/min/mg | 514 nM | 13.8 nM | –
